By inhibition is commonly meant the relative decrease from the control value, in per cent.

Holding throughout (assay type): cell-based
One series has as its system visna virus. Kind of series: Plaque reduction assay, inhibition of visna virus in vitro. The arrangement: key to Antiviral Activity: A: active compound; I: inactive compound. The note with it: for Antiviral Activity: Table 1; for inhibition at 1 µM / inhibition at 10 µM / inhibition at 100 µM / inhibition at 1000 µM: Visna-maedi virus; for inhibition at 1 µM / inhibition at 10 µM / inhibition at 100 µM / % Plaque Reduction / inhibition at 1000 µM: Table 2. An excerpt: Visna virus, a lentivirus genetically very similar to the AIDS virus, is pathogenic for sheep and goats. See Sonigo et al., Cell 42, 369-382 (1985); Haase, Nature 322, 130-136 (1986). Inhibition of visna virus replication in vitro as a useful model for human immunodeficiency virus (HIV) and its inhibition by test compounds has been described by Franket al., Antimicrobial Agents and Chemotherapy 31 (9), 1369-1374 (1987). The N-butyl derivative of 1,5-dideoxy-1,5-imino-D-glucitol, also referred to as n-butyl-deoxynojirimycin (N-Bu-DNJ), was used as a control standard for comparison with various novel compounds of this invention.
Various compounds as prepared above were tested for inhibition of visna virus in vitro in a plaque reduction assay as follows:
(§1) Sheep choroid plexus (SCP) cells were obtained from American Type Culture Collection (ATCC) catalogue number CRL 1700 and were routinely passaged in vitro in Dulbecco's Modified Eagles (DME) medium supplemented with 20% fetal bovine serum (FBS). SCP cells were passaged once per week at a 1:2 or 1:3 split ratio. Visna was titrated by plaque assay in six-well plates. Virus pools were stored at -70° C.
(§2) SCP cells were cultured in 6-well plates to confluence. Wells were washed two times with serum free Minimal Essential Medium (MEM) to remove FBS. 0.2 ml of virus was added per well in MEM supplemented with 4 mM glutamine and gentamycin. After 1 hour adsorption, the virus was aspirated from each well. The appropriate concentration of each compound in 5 ml of Medium 199 (M-199) supplemented With 2% lamb serum, 4 mM glutamine, 0.5% agarose and gentamycin was added to each well. Cultures were incubated at 37° C. in a humidified 5% CO2 incubator for 3-4 weeks. To terminate the test: cultures were fixed in 10% formalin, the agar removed, the monolayers stained with 1% crystal violet and plaques counted. Each compound concentration was run in triplicate. […] 0 is no toxicity observed while 4 is total lysing of the cell monolayer.
(In general: Plaques are areas of infected cells; plaque reduction assays count them against a control.)

Series [1] deals with Sheep choroid plexus (SCP) cells. Put plainly: Toxicity of compounds in control wells without virus, graded morphologically. The arrangement: key: 0: no toxicity; 4: total cell lysates. The conditions noted are these: 0 to 4 scale, Table 1. As for the experimental part: as §1, §2
Series [2] has the same test system. Described as above. As for the experimental part:
as §1, §2

Series [3] shares this test system. Described as above. The note with it: graded 0 to 4, Table 2. The arrangement: key: 0: no toxicity observed; 4: total lysing of the cell monolayer. On the procedure: as §1, §2

`CC(=O)OC[C@H]1NC[C@H](OC(C)=O)[C@@H](OC(C)=O)[C@@H]1OC(C)=O` [Example 3, 1,5-Dideoxy-1,5-imino-D-glucitol, tetraacetate]: the “Antiviral Activity” value in the series on visna virus (0.5 mM) and in the series on visna virus (1.0 mM) was “A” in each case. Also, the Toxicity in series [1] (0.5 mM) and in series [1] (1.0 mM) was 0 throughout.
As to `CC(=O)OC[C@@H]1[C@@H](OC(C)=O)[C@H](OC(C)=O)[C@@H](OC(C)=O)CN1C(=O)Cc1ccccc1` [Example 4, 1,5-(Phenylacetylimino)-1,5-dideoxy-D-glucitol-tetraacetate], the “Antiviral Activity” value in the series with visna virus (0.5 mM) and with visna virus (1.0 mM) was “A” each time. Also, the Toxicity in series [1] (0.5 mM) and in series [1] (1.0 mM) was 0 in each case.
Regarding `CC(=O)OC[C@@H]1[C@@H](OC(C)=O)[C@H](OC(C)=O)[C@@H](OC(C)=O)CN1C(=O)c1ccccc1` [Example 5, 1,5-(Benzoylimino)-1,5-dideoxy-D-glucitol, tetraacetate], the “Antiviral Activity” value in the series with visna virus (0.1 mM), in the series on visna virus (0.5 mM) and in the series on visna virus (1.0 mM) was “A” each time. Besides, the Toxicity in series [1] (0.1 mM), in series [1] (0.5 mM) and in series [1] (1.0 mM) was 0 in each case.
As to `CCCCN1C[C@H](OC(C)=O)[C@@H](OC(C)=O)[C@H](OC(C)=O)[C@H]1COC(C)=O` [Example 7, 1,5-(Butylimino)-1,5-dideoxy-D-glucitol, tetraacetate], the “Antiviral Activity” value in the series on visna virus (0.1 mM), with visna virus (0.5 mM) and with visna virus (1.0 mM) was “A” in each case. For the same compound, the Toxicity in series [1] (0.1 mM), in series [1] (0.5 mM) and in series [1] (1.0 mM) was 0 throughout.
With `CCOC(=O)CC(=O)N1C[C@H](OC(C)=O)[C@@H](OC(C)=O)[C@H](OC(C)=O)[C@H]1COC(C)=O` [Example 8, 1,5-(Ethylmalonylimino)-1,5-dideoxy-D-glucitol, tetraacetate], the “Antiviral Activity” value in the series with visna virus (0.1 mM) and in the series on visna virus (1.0 mM) was “A” each time. Moreover, the Toxicity in series [1] (0.1 mM) and in series [1] (1.0 mM) was 0 throughout.
Consider `CCCCCCCCCN1C[C@H](OC(C)=O)[C@@H](OC(C)=O)[C@H](OC(C)=O)[C@H]1COC(C)=O` [Example 14, 1,5-(Nonylimino)-1,5-dideoxy-D-glucitol, tetraacetate], for which the Toxicity stood at 2 in series [2] (0.1 mM, 0 to 4 scale, Table 1); 0 in series [1] (0.001 mM); 0 in series [1] (0.01 mM); 4 in series [1] (1.0 mM). In addition, the “Antiviral Activity” value with visna virus (0.001 mM) is listed as “A”; with visna virus (0.01 mM) it was “A”; in the series with visna virus (0.1 mM), “A”; in the series with visna virus (1.0 mM), “Toxic”.
As to `CCCCN1C[C@H](OC(=O)CC)[C@@H](OC(=O)CC)[C@H](OC(=O)CC)[C@H]1COC(=O)CC` [Example 17, 1,5-(Butylimino)-1,5-dideoxy-D-glucitol, tetrapropionate], the Toxicity was 2 in series [2] (0.01 mM, 0 to 4 scale, Table 1) and 4 in series [1] (0.1 mM). Moreover, the “Antiviral Activity” value in the series with visna virus (0.01 mM) is “A”; in the series on visna virus (0.1 mM) it was “Toxic”.
As to `CCCCN1C[C@H](OC(=O)C(C)C)[C@@H](OC(=O)C(C)C)[C@H](OC(=O)C(C)C)[C@H]1COC(=O)C(C)C` [Example 22, 1,5-(Butylimino)-1,5-dideoxy-D-glucitol, tetraisobutyrate], the “Antiviral Activity” value in the series on visna virus (0.01 mM), in the series with visna virus (0.1 mM) and in the series with visna virus (1.0 mM) was “A” throughout. Also, the Toxicity in series [1] (0.01 mM), in series [1] (0.1 mM) and in series [1] (1.0 mM) was 0 in each case.
`CCCCN1C[C@H](OC(C)=O)[C@@H](OC(C)=O)[C@@H]2O[C@H](c3ccccc3)OC[C@H]21` [Example 24, 1,5-(Butylimino)-1,5-dideoxy-4R,6-O-(phenylmethylene)-D-glucitol, diacetate]: the “Antiviral Activity” value in the series on visna virus (1.0 mM) is “A”. In series [1] (1.0 mM), this compound returned a Toxicity of 0.
On to `CCCC(=O)OC[C@H]1NC[C@H](OC(=O)CCC)[C@@H](OC(=O)CCC)[C@@H]1OC(=O)CCC` [Example 42, 1,5-Dideoxy-1,5-imino-D-glucitol, tetrabutyrate], for which the Toxicity is on record as 0 in series [3] (0.001 mM); 4 in series [3] (1.0 mM); 1 in series [2] (0.01 mM, graded 0 to 4, Table 2); 2 in series [2] (0.1 mM, graded 0 to 4, Table 2). In the series with visna virus (0.001 mM), the inhibition at 1 µM was 31%. Also, the inhibition at 10 µM with visna virus (0.01 mM) is 13%. Besides, the inhibition at 100 µM with visna virus (0.1 mM) was 97%.
`CCCCCCCCCCc1ccc(C(=O)N2C[C@H](OC(C)=O)[C@@H](OC(C)=O)[C@H](OC(C)=O)[C@H]2COC(C)=O)cc1` [Example 47, 1,5-[(4-Decylbenzoyl)imino]-1,5-dideoxy-D-glucitol, tetraacetate]: the Toxicity turned out to be 0 in series [3] (0.001 mM); 0 in series [3] (0.01 mM); 4 in series [3] (1.0 mM); 1 in series [2] (0.1 mM, graded 0 to 4, Table 2). Moreover, the “% Plaque Reduction” value with visna virus (1.0 mM) is reported as “Toxic”. Also, in the series with visna virus (0.001 mM), the inhibition at 1 µM came to 9%. The inhibition at 10 µM in the series on visna virus (0.01 mM) is 64%. For the same compound, the inhibition at 100 µM in the series on visna virus (0.1 mM) worked out at 86%.
For the compound `CCCCN1C[C@H](OC(=O)C(C)(C)C)[C@@H](OC(=O)C(C)(C)C)[C@H](OC(=O)C(C)(C)C)[C@H]1COC(=O)C(C)(C)C` [Example 50A], the Toxicity in series [3] (0.01 mM) turned out to be 0; in series [3] (1.0 mM), 4; in series [2] (0.1 mM, graded 0 to 4, Table 2), 1. For the same compound, in the series with visna virus (1.0 mM), the “% Plaque Reduction” value is given as “Toxic”. Besides, in the series on visna virus (0.01 mM), the inhibition at 10 µM turned out to be 20%. Further, the inhibition at 100 µM in the series on visna virus (0.1 mM) worked out at 49%.
Take `CCCCN1C[C@H](OC(=O)C(C)(C)C)[C@@H](O)[C@H](OC(=O)C(C)(C)C)[C@H]1COC(=O)C(C)(C)C` [Example 50B]: the Toxicity in series [3] (0.001 mM) is on record as 0; in series [3] (0.01 mM), 0; in series [2] (0.1 mM, graded 0 to 4, Table 2) it was 1; in series [2] (1.0 mM, graded 0 to 4, Table 2), 2. Moreover, in the series on visna virus (0.001 mM), the inhibition at 1 µM is 17%. Moreover, the inhibition at 10 µM in the series on visna virus (0.01 mM) is 33%. Also, the inhibition at 100 µM in the series with visna virus (0.1 mM) is 75%. In addition, in the series with visna virus (1.0 mM), the inhibition at 1000 µM worked out at 76%.
In the case of `CC(=O)OC[C@@H]1[C@@H](OC(C)=O)[C@H](OC(C)=O)[C@@H](OC(C)=O)CN1C(=O)CCOc1ccc(Cl)cc1` [Example 51, 1,5-Dideoxy-1,5-[[3-(4-chlorophenoxy)-1-oxopropyl]-imino]-D-glucitol, tetraacetate], the Toxicity amounted to 0 in series [3] (0.001 mM); 0 in series [3] (0.01 mM); 4 in series [3] (1.0 mM); 1 in series [2] (0.1 mM, graded 0 to 4, Table 2). In addition, the “% Plaque Reduction” value with visna virus (1.0 mM) is “Toxic”. Also, the inhibition at 1 µM in the series with visna virus (0.001 mM) stood at 12%. For the same compound, the inhibition at 10 µM in the series on visna virus (0.01 mM) stood at 57%. In the series with visna virus (0.1 mM), the inhibition at 100 µM stood at 91%.
`CC(=O)OC[C@@H]1[C@@H](OC(C)=O)[C@H](OC(C)=O)[C@@H](OC(C)=O)CN1C(=O)c1ccc(-c2ccccc2)cc1` [Example 53, 1,5-[([1,1'-biphenyl]-4-ylcarbonyl)imino]-1,5-dideoxy-D-glucitol, tetraacetate]: the Toxicity in series [3] (0.001 mM) came to 0; in series [3] (0.01 mM), 0; in series [3] (1.0 mM) it was 4; in series [2] (0.1 mM, graded 0 to 4, Table 2) it was 2. Besides, the “% Plaque Reduction” value in the series with visna virus (1.0 mM) is “Toxic”. For the same compound, the inhibition at 1 µM in the series with visna virus (0.001 mM) turned out to be 28%. Moreover, the inhibition at 10 µM in the series with visna virus (0.01 mM) turned out to be 81%. In the series on visna virus (0.1 mM), the inhibition at 100 µM was 100%.
For `CC(=O)OC[C@@H]1[C@@H](OC(C)=O)[C@H](OC(C)=O)[C@@H](OC(C)=O)CN1CCCC(F)(F)F` [Example 63, 1,5-(4,4,4-Trifluorobutylimino)-1,5-dideoxy-D-glucitol, tetraacetate], the Toxicity is 0 in series [3] (0.1 mM) and 2 in series [2] (1.0 mM, graded 0 to 4, Table 2). For the same compound, in the series with visna virus (0.1 mM), the inhibition at 100 µM is 2%. Moreover, in the series on visna virus (1.0 mM), the inhibition at 1000 µM came to 90%.
`CCCC(=O)OC[C@@H]1[C@@H](O)[C@H](OC(=O)CCC)[C@@H](OC(=O)CCC)CN1CCCCCC(F)(F)F` [Example 66, 1,5-(6,6,6-Trifluorohexylimino)-1,5-dideoxy-D-glucitol, 2,3,6-tributyrate]: the Toxicity is listed as 0 in series [3] (0.001 mM); 0 in series [3] (0.01 mM); 1 in series [2] (0.1 mM, graded 0 to 4, Table 2); 2 in series [2] (1.0 mM, graded 0 to 4, Table 2). In addition, the inhibition at 1 µM in the series with visna virus (0.001 mM) is -3%. For the same compound, the inhibition at 10 µM in the series on visna virus (0.01 mM) was found to be 38%. Moreover, the inhibition at 100 µM with visna virus (0.1 mM) is 88%. In addition, the inhibition at 1000 µM in the series on visna virus (1.0 mM) stood at 100%.

Source of the values: US5310745A, “Antiviral compounds” (priority 1992, dated 1994).
